Measurements published in ChEMBL document CHEMBL5729264, “Bicyclic compounds” (2022).

Test: Dual-Glo Luciferase Assay: The Dual-Glo Luciferase Reagent was prepared by transferring the contents of one bottle of Dual-Glo Luciferase Buffer to one bottle of Dual-Glo Luciferase Substrate to create the Dual-Glo Luciferase Reagent. Mixing was performed by inversion until the substrate was thoroughly dissolved. After mixing, the reagent was aliquoted into 15 ml tubes. In the afternoon (24 hrs post compound treatment), the DMEM+medium in the 384 well plates were aspirated by Microplate Washer.Measuring firefly luciferase activity: 20 ul Dual-Glo Luciferase Reagent was added to the 384-well plates. The plates were protected from light to prevent interference with the assay. The plates were shaken for 1 min followed centrifuging plates at 1000 rpm for 30 seconds. After waiting at least 10 minutes, the firefly luminescence was measured by Envision.Measuring renilla luciferase activity: 20 ul Stop-Glo Reagent was added to the 384-well plates. The plates were shaken for 1 min and then centrifuged at 1000 rpm for 30 seconds. After waiting at least 10 minutes, the renilla luminescence was measured by Envision.Compound IC50 and maximum inhibition on the firefly luciferase and renilla luciferase activities were reported separately.

SMILES	IC50
C[C@@H](NC(=O)c1ccc2c(Oc3ccc(C(F)(F)F)cc3)cccc2c1)c1cccc(N(C)C)n1	< 100 nM
C[C@H](NC(=O)c1ccc2c(Oc3ccc(C(F)(F)F)cc3)cccc2c1)c1nnn(C)n1	< 100 nM
C[C@@H](NC(=O)c1ccc2c(Oc3ccc(C(F)(F)F)cc3)cccc2c1)C1CCN(CCO)CC1	in the range around 550 nM
C[C@H](NC(=O)c1ccc2c(Oc3ccc(C(F)(F)F)cc3)cccc2c1)c1cccnc1N	< 100 nM
C[C@H](NC(=O)c1ccc2c(Oc3ccc(C(F)(F)F)cc3)cccc2c1)C1CN(CC(F)F)C1	in the range around 2000 nM
C[C@@H](NC(=O)c1ccc2c(Oc3ccc(C(F)(F)F)cc3)cccc2c1)C(N)=O	< 100 nM
C#CCCNC(=O)c1ccc2c(Oc3ccc(C(F)(F)F)cc3)cccc2c1	< 100 nM
CC(C)NC(=O)c1ccc2c(Oc3ccc(C(F)(F)F)cc3)cncc2c1	< 100 nM
COC[C@@H](C)NC(=O)c1ccc2c(Oc3ccc(C(F)(F)F)cc3)cccc2c1	< 100 nM
CCN1CC([C@H](C)NC(=O)c2ccc3c(Oc4ccc(C(F)(F)F)cc4)cccc3c2)C1	in the range around 550 nM
CS(=O)(=O)NC(=O)c1ccc2c(Oc3ccc(F)c(F)c3)cccc2c1	< 100 nM
COc1cc(Oc2ccc(C(F)(F)F)cc2)c2ncc(C(=O)NC(C)C)cc2c1	< 100 nM
C[C@@H](NC(=O)c1ccc2c(Oc3ccc(C(F)(F)F)cc3)cccc2c1)C1(F)CNC1	in the range around 550 nM
C[C@H](CCNCC(F)F)NC(=O)c1ccc2c(Oc3ccc(C(F)(F)F)cc3)cccc2c1	< 100 nM
C[C@@H](NC(=O)c1ccc2c(Oc3ccc(C(F)(F)F)cc3)cccc2c1)C1CNC1	< 100 nM
C[C@@H](NC(=O)c1ccc2c(Oc3ccc(C(F)(F)F)cc3)cccc2c1)C1CCNCC1	< 100 nM
CNCCCNC(=O)c1ccc2c(Oc3ccc(C(F)(F)F)cc3)cccc2c1	< 100 nM
CS(=O)(=O)NC(=O)c1ccc2c(Oc3ccc(Cl)c(Cl)c3)cccc2c1	< 100 nM
O=C(NC1(c2ccccn2)CC1)c1ccc2c(Oc3ccc(C(F)(F)F)cc3)cccc2c1	< 100 nM
C[C@@H](NC(=O)c1ccc2c(Oc3ccc(C(F)(F)F)cc3)cccc2c1)c1nnn(C)n1	in the range around 550 nM
C[C@H](CN)NC(=O)c1ccc2c(Oc3ccc(C(F)(F)F)cc3)cccc2c1	in the range around 550 nM
C[C@@H](NC(=O)c1ccc2c(Oc3ccc(C(F)(F)F)cc3)cccc2c1)C1CCN(C)CC1	< 100 nM

SMILES	IC50
CNS(=O)(=O)c1ccc2c(Oc3ccc(Cl)c(Cl)c3)cccc2c1	< 100 nM
CC(C)N1CC([C@H](C)NC(=O)c2ccc3c(Oc4ccc(C(F)(F)F)cc4)cccc3c2)C1	in the range around 550 nM
COC[C@H](C)NC(=O)c1cnc2c(Oc3ccc(C(F)(F)F)cc3)cc(OC)cc2c1	< 100 nM
C[C@@H](NC(=O)c1ccc2c(Oc3ccc(C(F)(F)F)cc3)cccc2c1)c1cn(C)cn1	< 100 nM
C[C@@H](NC(=O)c1ccc2c(Oc3ccc(C(F)(F)F)cc3)cccc2c1)C1CN(CC(F)F)C1	< 100 nM
CC#C[C@@H](C)NC(=O)c1ccc2c(Oc3ccc(C(F)(F)F)cc3)cccc2c1	< 100 nM
C[C@@H](NC(=O)c1ccc2c(Oc3ccc(C(F)(F)F)cc3)cccc2c1)C1CN(CCF)C1	< 100 nM
CC(C)NC(=O)c1cc2cccc(Oc3ccc(C(F)(F)F)cc3)c2s1	< 100 nM
CCN1CCC([C@@H](C)NC(=O)c2ccc3c(Oc4ccc(C(F)(F)F)cc4)cccc3c2)CC1	in the range around 550 nM
C[C@@H](NC(=O)c1ccc2c(Oc3ccc(C(F)(F)F)cc3)cccc2c1)c1c[nH]cn1	< 100 nM
COc1cc(Oc2ccc(C(F)(F)F)cc2)c2ncc(C(=O)N[C@H](C)c3ccccn3)cc2c1	in the range around 550 nM
CC(C)NC(=O)c1ccc2c(Oc3ccc(Cl)cc3)cccc2c1	< 100 nM
O=C(N[C@H](CO)C1CNC1)c1ccc2c(Oc3ccc(C(F)(F)F)cc3)cccc2c1	in the range around 550 nM
O=C(N[C@@H](CO)c1ccccn1)c1ccc2c(Oc3ccc(C(F)(F)F)cc3)cccc2c1	in the range around 550 nM
C[C@@H](CCN)NC(=O)c1ccc2c(Oc3ccc(C(F)(F)F)cc3)cccc2c1	< 100 nM
C[C@H](CCN(C)C)NC(=O)c1ccc2c(Oc3ccc(C(F)(F)F)cc3)cccc2c1	< 100 nM
C[C@@H](NC(=O)c1ccc2c(Oc3ccc(C(F)(F)F)cc3)cccc2c1)C1CC1	< 100 nM
CC(C)NC(=O)c1ccc2c(Oc3cccc(Cl)c3)cccc2c1	< 100 nM
O=C(NC1(c2ccccc2)COC1)c1ccc2c(Oc3ccc(C(F)(F)F)cc3)cccc2c1	< 100 nM
COc1cc(Oc2ccc(C(F)(F)F)cc2)c2ncc(C(=O)N[C@@H](C)c3ccccn3)cc2c1	< 100 nM
O=C(N[C@H](CCO)c1ccccn1)c1ccc2c(Oc3ccc(C(F)(F)F)cc3)cccc2c1	in the range around 550 nM
N#CCNC(=O)c1ccc2c(Oc3ccc(C(F)(F)F)cc3)cccc2c1	< 100 nM

SMILES	IC50
CN(C#N)CCNC(=O)c1ccc2c(Oc3ccc(C(F)(F)F)cc3)cccc2c1	< 100 nM
C[C@@H](NC(=O)c1cnc2c(Oc3ccc(C(F)(F)F)cc3)cccc2c1)c1cccc2ccsc12	in the range around 550 nM
CC(C)NC(=O)c1ccc2c(Oc3ccc(C(F)(F)F)cc3)nccc2c1	< 100 nM
COC[C@@H](C)NC(=O)c1cnc2c(Oc3ccc(C(F)(F)F)cc3)cc(OC)cc2c1	< 100 nM
C[C@@H](CCO)NC(=O)c1ccc2c(Oc3ccc(C(F)(F)F)cc3)cccc2c1	< 100 nM
C[C@@H](NC(=O)c1ccc2c(Oc3ccc(C(F)(F)F)cc3)cccc2c1)c1ncc[nH]1	< 100 nM
CNCC[C@@H](C)NC(=O)c1ccc2c(Oc3ccc(C(F)(F)F)cc3)cccc2c1	< 100 nM
C[C@H](NC(=O)c1cnc2c(Oc3ccc(C(F)(F)F)cc3)cccc2c1)c1ccccn1	< 100 nM
C[C@@H](NC(=O)c1ccc2c(Oc3ccc(C(F)(F)F)cc3)cccc2c1)c1cccnc1N	in the range around 2000 nM
C[C@@H](NC(=O)c1ccc2c(Oc3ccc(C(F)(F)F)cc3)cccc2c1)c1nccn1C	in the range around 550 nM
C[C@@H](NC(=O)c1ccc2c(Oc3ccc(C(F)(F)F)cc3)cccc2c1)c1ccccn1	in the range around 550 nM
COC[C@H](C)NC(=O)c1ccc2c(Oc3ccc(C(F)(F)F)cc3)cccc2c1	< 100 nM
C[C@@H](NC(=O)c1ccc2c(Oc3ccc(C(F)(F)F)cc3)cccc2c1)c1cccc2cn[nH]c12	< 100 nM
CN(C#N)CCCNC(=O)c1ccc2c(Oc3ccc(C(F)(F)F)cc3)cccc2c1	< 100 nM
CC(C)NC(=O)c1cnc2c(Oc3ccc(C(F)(F)F)cc3)cc(F)c(F)c2c1	< 100 nM
CC(C)NC(=O)c1cnc2c(Oc3ccc(C(F)(F)F)cc3)cccc2c1	< 100 nM
C[C@H](NC(=O)c1ccc2c(Oc3ccc(C(F)(F)F)cc3)cccc2c1)C1COC1	< 100 nM
C#C[C@@H](C)NC(=O)c1ccc2c(Oc3ccc(C(F)(F)F)cc3)cccc2c1	< 100 nM
C[C@H](NC(=O)c1ccc2c(Oc3ccc(C(F)(F)F)cc3)cccc2c1)C1CCC1	< 100 nM
C[C@H](NC(=O)c1ccc2c(Oc3ccc(C(F)(F)F)cc3)cccc2c1)C1CNC1	< 100 nM
CC(C)N1CCC([C@@H](C)NC(=O)c2ccc3c(Oc4ccc(C(F)(F)F)cc4)cccc3c2)CC1	in the range around 550 nM
C[C@@H](NC(=O)c1cnc2c(Oc3ccc(C(F)(F)F)cc3)cccc2c1)c1ccccn1	in the range around 550 nM

SMILES	IC50
CC(NC(=O)c1ccc2c(Oc3ccc(C(F)(F)F)cc3)cccc2c1)c1cc(Br)ccn1 (configuration not stated)	< 100 nM
COc1cc(Oc2ccc(C(F)(F)F)cc2)c2ncc(C(=O)N[C@H](C)CO)cc2c1	< 100 nM
C[C@H](NC(=O)c1ccc2c(Oc3ccc(C(F)(F)F)cc3)cccc2c1)C1(O)CNC1	in the range around 550 nM
C[C@H](NC(=O)c1ccc2c(Oc3ccc(C(F)(F)F)cc3)cccc2c1)C1CN(C)C1	in the range around 2000 nM
C[C@H](NC(=O)c1ccc2c(Oc3ccc(C(F)(F)F)cc3)cccc2c1)C(N)=O	< 100 nM
C#C[C@H](C)NC(=O)c1ccc2c(Oc3ccc(C(F)(F)F)cc3)cccc2c1	< 100 nM
CC#C[C@H](C)NC(=O)c1ccc2c(Oc3ccc(C(F)(F)F)cc3)cccc2c1	< 100 nM
COC[C@@H](C)NC(=O)c1cnc2c(Oc3ccc(C(F)(F)F)cc3)cccc2c1	in the range around 550 nM
CNS(=O)(=O)c1ccc2c(Oc3ccc(C(F)(F)F)cc3)cccc2c1	< 100 nM
CC(=O)N1CC([C@@H](C)NC(=O)c2ccc3c(Oc4ccc(C(F)(F)F)cc4)cccc3c2)C1	in the range around 550 nM
C[C@@H](NC(=O)c1ccc2c(Oc3ccc(C(F)(F)F)cc3)cccc2c1)c1cc(N(C)C)ccn1	in the range around 2000 nM
O=C(NC(CCO)CCO)c1ccc2c(Oc3ccc(C(F)(F)F)cc3)cccc2c1	< 100 nM
C[C@H](CO)NC(=O)c1cnc2c(Oc3ccc(C(F)(F)F)cc3)cc(F)c(F)c2c1	< 100 nM
CNCCNC(=O)c1ccc2c(Oc3ccc(C(F)(F)F)cc3)cccc2c1	in the range around 550 nM
CCN1CC([C@@H](C)NC(=O)c2ccc3c(Oc4ccc(C(F)(F)F)cc4)cccc3c2)C1	in the range around 550 nM
C[C@@H](NC(=O)c1ccc2c(Oc3ccc(C(F)(F)F)cc3)cccc2c1)c1cccc2ccc(=O)[nH]c12	< 100 nM
O=C(NC1(c2ccccc2)CC1)c1ccc2c(Oc3ccc(C(F)(F)F)cc3)cccc2c1	< 100 nM
O=C(NC(CO)c1ccccn1)c1ccc2c(Oc3ccc(C(F)(F)F)cc3)cccc2c1 (configuration not stated)	< 100 nM
CC(C)NC(=O)c1ccc2c(Oc3ccc(F)c(F)c3)cccc2c1	< 100 nM
C[C@@H](NC(=O)c1ccc2c(Oc3ccc(C(F)(F)F)cc3)cccc2c1)C1CN(C)C1	in the range around 550 nM
CCNCC[C@@H](C)NC(=O)c1ccc2c(Oc3ccc(C(F)(F)F)cc3)cccc2c1	< 100 nM
